Consider 13 compounds from patent publication US20060229254A1, “Compounds having prolyl oligopeptidase inhibitory activity” (priority 2003, published 2006).

For the test, the target named is T1, pig brain prolyl oligopeptidase (Sus scrofa, UniProt P23687).
T1 construct: The brains were homogenized with a glass-teflon homogenisator in 3 volumes (w/v) of ice-cold 0.1 M sodium-potassium phosphate buffer; from tissue; host or cells: pig brain (whole brain excluding cerebellum and most of the brain stem), 10000 g supernatant of the homogenate
T1 sequence (P23687 whole entry): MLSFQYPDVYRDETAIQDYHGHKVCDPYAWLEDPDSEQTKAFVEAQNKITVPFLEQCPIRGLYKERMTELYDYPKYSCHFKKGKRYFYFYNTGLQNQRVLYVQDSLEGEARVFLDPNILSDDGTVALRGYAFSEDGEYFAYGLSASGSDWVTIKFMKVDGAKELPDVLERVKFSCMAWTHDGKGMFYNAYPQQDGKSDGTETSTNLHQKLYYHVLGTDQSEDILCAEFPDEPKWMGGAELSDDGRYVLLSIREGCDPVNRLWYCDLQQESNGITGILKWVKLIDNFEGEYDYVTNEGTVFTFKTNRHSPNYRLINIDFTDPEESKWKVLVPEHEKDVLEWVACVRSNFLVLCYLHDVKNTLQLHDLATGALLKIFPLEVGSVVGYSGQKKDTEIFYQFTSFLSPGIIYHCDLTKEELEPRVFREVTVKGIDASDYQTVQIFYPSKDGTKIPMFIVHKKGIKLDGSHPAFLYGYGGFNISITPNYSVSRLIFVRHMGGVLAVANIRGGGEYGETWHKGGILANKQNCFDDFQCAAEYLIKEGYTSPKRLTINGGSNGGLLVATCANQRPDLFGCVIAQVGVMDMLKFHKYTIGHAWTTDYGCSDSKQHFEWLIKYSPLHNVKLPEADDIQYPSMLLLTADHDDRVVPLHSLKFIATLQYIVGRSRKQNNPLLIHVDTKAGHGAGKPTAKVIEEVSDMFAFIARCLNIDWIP
Briefly: Inhibition of pig brain prolyl oligopeptidase (Suc-Gly-Pro-AMC fluorometric microplate assay). It counts as biochemical. The note with it: pig brain supernatant, Suc-Gly-Pro-AMC substrate, 30 min preincubation, 30° C., pH 7.0. The procedure: The inhibitory effect of the novel compounds on POP activity of pig brain was determined with a method based on that described by Toide et al. (Toide, K, Iwamoto, Y., Fujiwara. T., Abe, H., J. Pharmacol. Exp. Ther., 1995, 274, 1370-1378) for the rat enzyme.
The whole pig brains, excluding cerebellum and most of the brain stem, of three pigs were placed in liquid nitrogen within 30 min from killing and stored at −80° C. until homogenized. The brains were homogenized with a glass-teflon homogenisator in 3 volumes (w/v) of ice-cold 0.1 M sodium-potassium phosphate buffer (pH 7.0) and the homogenates were centrifuged for 20 min at 4° C. at 10000 g. The supernatants were collected, pooled and stored in small aliquots at −80° C. until used. The supernatant was thawn in ice just before activity assay and diluted in a ratio 1:2 with homogenisation buffer (=enzyme preparation).
In the microplate assay procedure, 10 μl of enzyme preparation was preincubated with 460 μl of 0.1 M sodium-potassium phosphate buffer (pH 7.0) and 5 μl of a solution of novel compound dissolved in DMSO and diluted with 0.1 M sodium-potassium phosphate buffer at 30° C. for 30 min. The controls contained 10 μl enzyme preparation and 465 μl of 0.1 M sodium-potassium phosphate buffer (pH 7.0). The reaction was initiated by adding 25 μl of 4 mM Suc-Gly-Pro-AMC (AMC: 7-amido-4-methylcoumarin) dissolved in 0.1 M sodium-potassium phosphate buffer (pH 7.0), and the mixture was incubated at 30° C. for 60 min. The reaction was terminated by adding 500 μl of 1 M sodium acetate buffer (pH 4.2).
Formation of 7-amido-4-methylcoumarin was determined fluorometrically with microplate fluorescence reader (excitation at 360 nm and emission at 460 nm). The final concentration of novel compounds in the assay mixture varied from 10^−12 M to 10^−4 M.
The prolyl oligopeptidase activity was calculated with the following formula in the presence of various concentrations of novel compounds. To reveal the inhibitory potency of the novel compound, activities (% of control) were plotted against the log concentration of the compound, and the IC50 value was determined by non-linear regression utilizing GraphPad Prism software. Activity (% of control)=a/b×100, where
a=fluorescence intensity in the presence of a novel compound
b=fluorescence intensity without a novel compound (control)
For the compound `CC(C)(C)OC(=O)N1[C@H](C(=O)N2CCCC2)CC[C@@H]1C(C)(C)C` [Example 9, Boc-5(R)-tert-butyl-L-prolyl-pyrrolidine], inhibition was half-maximal at 2.2 nM (IC50).

Take `O=C(NCc1ccccc1)C1=CCCC1C(=O)N1CCC[C@H]1C(=O)CO` (single isomer, unassigned) [Example 2]: the IC50 is 0.32 nM.

The compound `N#C[C@@H]1CCCN1C(=O)C1CCC=C1C(=O)NCc1ccccc1` (stereo partly drawn) [Example 1, 2-(Benzylcarbamoyl)-cyclopent-2-ene-carboxylic acid 2(S)-cyanopyrrolidine amide] showed a half-maximal inhibitory concentration (IC50) of 0.38 nM. This IC50 and that of the compound before are within 1.5-fold of each other.

`O=C(Cc1ccccc1)C1=CCCC1C(=O)N1CCCC1` (stereo not shown) [Example 4, 2-Benzylcarbonyl-cyclopent-2-ene-carboxylic acid pyrrolidine amide] showed a half-inhibitory concentration (IC50) of 7.7 nM.

Take `C[C@@H]1CC[C@@H](C(=O)N2CCC[C@H]2C(=O)CO)N1C(=O)CCCc1ccccc1` [Example 8, 4-Phenylbutanoyl-5(R)-methyl-L-prolyl-2(S)-(hydroxyacetyl)-pyrrolidine]: 0.15 nM corresponded to half-maximal inhibition (IC50).

“4-Phenylbutanoyl-5(R)-methyl-L-prolyl-pyrrolidine [Example 7]” registered an IC50 of 0.71 nM.

`N#C[C@@H]1CCCN1C(=O)C1CCC=C1C(=O)CCCc1ccccc1` (stereo partly drawn) [Example 5, 2-(4-Phenylbutanoyl)-cyclopent-2-ene-carboxylic acid 2(S)-cyanopyrrolidine amide] showed a concentration for half-maximal inhibition (IC50) of 0.21 nM. Against the preceding compound, the IC50 is about 3.4-fold lower.

“4-Phenylbutanoyl-5(S)-methyl-L-prolyl-pyrrolidine [Example 14]” returned a half-inhibitory concentration (IC50) of 1.4 nM.

`O=C(NCc1ccccc1)C1=CCCC1C(=O)N1CCCC1` (stereo not shown) [Example 3, 2-Benzylcarbamoyl-cyclopent-2-ene-carboxylic acid pyrrolidine amide] had a 50% inhibitory concentration (IC50) of 9 nM.

The compound `CC(C)(C)OC(=O)N1[C@H](C(C)(C)C)CC[C@H]1C(=O)N1CCCC1` [Example 16, Boc-5(S)-tert-butyl-L-prolyl-pyrrolidine] came in with a half-inhibitory concentration (IC50) of 9.2 nM.

`CC(C)(C)[C@H]1CC[C@@H](C(=O)N2CCC[C@H]2C(=O)CO)N1C(=O)CCCc1ccccc1` [Example 12, 4-Phenylbutanoyl-5(R)-tert-butyl-L-prolyl-2(S)-(hydroxyacetyl)-pyrrolidine] registered an IC50 of 0.24 nM. Compared with the last compound, the IC50 is about 38-fold lower.

The compound `C[C@H]1CC[C@@H](C(=O)N2CCC[C@H]2C(=O)CO)N1C(=O)CCCc1ccccc1` [Example 15, 4-Phenylbutanoyl-5(S)-methyl-L-prolyl-2(S)-(hydroxyacetyl)-pyrrolidine] showed a 50% inhibitory concentration (IC50) of 0.17 nM.

For `CC(C)(C)[C@H]1CC[C@@H](C(=O)N2CCCC2)N1C(=O)CCCc1ccccc1` [Example 11, 4-Phenylbutanoyl-5(R)-tert-butyl-L-prolyl-pyrrolidine], it took 1.6 nM to reach half-maximal inhibition (IC50). This IC50 lies about 9.4-fold higher than the previous one.

Usually IC50 stands for the concentration at which inhibition is half-maximal. Read a low IC50 as higher potency.
